Experimental data: patent US20250051301A1, “MUTANT IDH1 AND IDH2 INHIBITOR AND APPLICATION THEREOF” (Betta Pharmaceuticals Co., Ltd, priority 2022, published 2025)

Tests used:
[1] = molecular target: T1, IDH2^R140Q (Homo sapiens, UniProt P48735, R140Q); test: Enzyme activity inhibition assay (fluorescence-based), IDH2 R140Q; type: biochemical; settings: numeric values
T1 sequence (P48735 40-452 R140Q): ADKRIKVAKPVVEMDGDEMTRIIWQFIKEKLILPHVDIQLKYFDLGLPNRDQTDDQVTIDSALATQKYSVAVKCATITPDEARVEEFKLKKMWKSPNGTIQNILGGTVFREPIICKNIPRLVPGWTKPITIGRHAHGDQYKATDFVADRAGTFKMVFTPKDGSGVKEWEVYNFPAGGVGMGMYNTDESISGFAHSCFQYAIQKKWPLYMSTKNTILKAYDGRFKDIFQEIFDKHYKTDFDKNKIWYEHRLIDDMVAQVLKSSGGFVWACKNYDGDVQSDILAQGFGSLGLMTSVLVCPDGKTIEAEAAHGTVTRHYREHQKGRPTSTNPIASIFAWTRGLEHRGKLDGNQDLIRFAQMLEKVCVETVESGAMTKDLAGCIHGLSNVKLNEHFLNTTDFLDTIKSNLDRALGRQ
Procedure: The inhibitory ability of the compounds on the enzyme activities of IDH1^R132H and IDH2^R140Qwas detected and expressed as the half inhibitory concentration (IC50) value. AG-881 was used as a positive control compound. In this experiment, compounds were screened on enzymes IDH1^R132H and IDH2^R140Q using a fluorescence-based method (initial concentration: 10000 nM, 3-fold dilution, 10 concentrations, and single-well detection). • (1) Preparation of 1×assay buffer. • (2) Preparation of compound concentration gradient: the compounds to be tested were assayed at an initial concentration of 10000 nM, with 3-fold dilution and 10 concentrations, and diluted into 200-fold the final concentration in 100% DMSO solution in a 384-well plate. • (3) 250 nL of DMSO and 250 nL of diluted compounds were transferred to a reaction plate with Echo 550. • (4) IDH2^R140Q enzyme detection: 25 μL of an IDH2^R140Q enzyme solution was added, and the mixture was incubated for 60 minutes; then 25 μL of a substrate solution was added, and the mixture was incubated for 150 minutes; then 25 μL of a detection buffer was added, and the mixture was shaken for 1 minute and incubated for 60 minutes; and finally, Synergy 2, Ex544/Em590 cutoff 590 was used for reading. • (5) IDH1^R132H enzyme detection: 40 μL of a mixture solution of an IDH1^R132H enzyme at the 1.25-fold final concentration and NADPH was added, and the mixture was incubated for 60 minutes; then 10 μL of a substrate solution at the 5-fold final concentration was added, and the mixture was incubated for 90 minutes; then 25 μL of a detection buffer at the 3-fold final concentration was added, and the mixture was shaken for 1 minute. and finally, Synergy 2, Ex544/Em590 cutoff 590 was used for reading. • (8) Inhibition rate calculation, formula: % Inhibition=(RFU_sample−RFU_min)/(RFU_max−RFU_min)*100%, wherein RFU-sample represents the fluorescence intensity of a sample; RFU-min represents the average value of negative control wells and represents the fluorescence intensity with an enzyme; and RFU-max represents the average value of positive control wells and represents the fluorescence intensity without an enzyme. The curve fitting was performed using Graphpad Prism software to obtain IC50 values, and the test results were as shown in table 2.

[2] = Pharmacokinetic detection in dogs; type: in vivo; settings: beagle dogs
Procedure: Adult beagle dogs (6-12 months of age) received a single dose of the compounds to be tested via intravenous administration (IV) or oral gavage administration (PO), respectively. In the IV single dose, 5% DMSO+5% Solutol+90% physiological saline was used as the excipient; the intravenous administration was carried out at a dose of 1 mg/kg (2 females and 2 males); and the venous blood collection time was 5 min, 15 min, 0.5 h, 1 h, 2 h, 4 h, 6 h, 8 h, 10 h and 24 h. In the PO single dose, 5% DMSO+5% Solutol+90% purified water was used as the excipient; the oral gavage administration was carried out at a dose of 5 mg/kg (2 females and 2 males); and the blood collection time was 15 min, 0.5 h, 1 h, 2 h, 4 h, 6 h, 8 h, 10 h and 24 h. Blood samples were collected in tubes containing EDTA anticoagulants and centrifuged at 4000 rpm at 4° C. for 10 min, and the supernatants were transferred to centrifuge tubes and stored at −20° C. For the detection, 30 μL of the plasma supernatant sample was taken, and 200 μL of an internal standard solution was added. The mixture was centrifuged at 3000 rpm for 10 minutes. Then, 100 μL of the supernatant solution was diluted with water at a 1:1 ratio and then injected with an injection volume of 5 μL. The concentration of the compounds to be tested in the plasma sample was analyzed by liquid chromatography-tandem mass spectrometry (LC-MS/MS). Plasma concentration-time data for individual animals were analyzed using Sciex Analyst software. The non-compartment model was introduced into the concentration analysis, and pharmacokinetic parameters (Cl_obs, Cmax and AUClast) of the compounds to be tested were calculated using WinNonlin (version 4.1; pHarsight) software.

[3] = both sexes, dog, plasma, PO, 5 mg/kg

IC50 [1]: 190 nM
Cl_obs ([2]; IV, 1 mg/kg): 5.1 mL/min/kg
AUC(0-t) ([2]; both sexes, dog, plasma, IV, 1 mg/kg): 2630 ng·h/mL
AUC(0-t) [2, 3]: 11700 ng·h/mL
Cmax [2, 3]: 1160 ng/mL
SMILES: C[C@@H](Nc1nc(N[C@H](C)C(F)(F)F)nc(-c2cc(F)c(N)c(Cl)n2)n1)C(F)(F)F [Example 5, 6-(5-amino-6-chloro-4-fluoropyridin-2-yl)-N^2,N^4-bis((R)-1,1,1-trifluoropropyl-2-yl)-1,3,5-triazine-2,4-diamine]
